Measurements from PubChem BioAssay (NCI).
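GI50 marks 50% less growth. The concentration for full growth arrest is given as TGI.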

Key:
Test in all cases: NCI anticancer screen, dose series, 384-well format
[1] = system: SK-MEL-28 melanoma
[2] = system: MDA-MB-435 melanoma
[3] = system: MALME-3M melanoma
[4] = system: HL-60(TB) leukemia
[5] = system: PC-3 prostate
[6] = system: NCI-H322M lung
[7] = system: SF-295 CNS
[8] = system: SNB-75 CNS
[9] = system: SK-OV-3 ovarian
[10] = system: DU-145 prostate
[11] = system: SF-539 CNS
[12] = system: K-562 leukemia
[13] = system: U251 glioblastoma
[14] = system: UACC-62 melanoma
[15] = system: A549 NSCLC
[16] = system: CAKI-1 renal
[17] = system: ACHN renal
[18] = system: SK-MEL-5 melanoma
[19] = system: OVCAR-4 ovarian
[20] = system: HOP-92 NSCLC
[21] = system: BT-549 breast
[22] = system: NCI/ADR-RES ovarian
[23] = system: KM12 colon
[24] = system: HT29 colon
[25] = system: 786-0 renal
[26] = system: EKVX NSCLC
[27] = system: OVCAR-8 ovarian
[28] = system: M14 melanoma
[29] = system: UACC-257 melanoma
[30] = system: RXF 393 renal
[31] = system: TK-10 renal
[32] = system: SF-268 CNS
[33] = system: HOP-62 NSCLC
[34] = system: MCF7 breast
[35] = system: OVCAR-3 ovarian
[36] = system: SW-620 colon
[37] = system: SK-MEL-2 melanoma
[38] = system: LOX IMVI melanoma
[39] = system: IGROV1 ovarian
[40] = system: A498 renal
[41] = system: HCT-15 colon
[42] = system: NCI-H460 NSCLC
[43] = system: HCC-2998 colon
[44] = system: MOLT-4 leukemia
[45] = system: HCT-116 colon
[46] = system: NCI-H226 lung
[47] = system: CCRF-CEM leukemia
[48] = system: NCI-H23 lung
[49] = system: NCI-H522 lung
[50] = system: HS 578T breast
[51] = system: MDA-MB-468 breast
[52] = system: SNB-19 CNS
[53] = system: COLO 205 colon
[54] = system: RPMI-8226 leukemia
[55] = system: SN12C renal

O=C(Nc1cccc(Br)c1)Oc1ccc(Cl)c2cccnc12
GI50 [1]: 3.5 µM | TGI [1]: 9.22 µM | GI50 [2]: 5.71 µM | TGI [2]: 19.1 µM | GI50 [3]: 2.79 µM | TGI [3]: 7.77 µM | GI50 [4]: 0.42 µM | TGI [4]: 1.42 µM | GI50 [5]: 2.37 µM | TGI [5]: 5.64 µM | GI50 [6]: 15.3 µM | TGI [6]: 31.4 µM | GI50 [7]: 4.71 µM | TGI [7]: 16.3 µM | GI50 [8]: 2.96 µM | TGI [8]: 8.36 µM | GI50 [9]: 15.4 µM | TGI [9]: 28.9 µM | GI50 [10]: 4.76 µM | TGI [10]: 19.7 µM | GI50 [11]: 3.26 µM | TGI [11]: 10.4 µM | GI50 [12]: 13.5 µM | TGI [12]: 27 µM | GI50 [13]: 3.9 µM | TGI [13]: 11.2 µM | GI50 [14]: 3.73 µM | TGI [14]: 10.8 µM | GI50 [15]: 11 µM | TGI [15]: 23.8 µM | GI50 [16]: 2.61 µM | TGI [16]: 6.82 µM | GI50 [17]: 3.98 µM | TGI [17]: 15 µM | GI50 [18]: 2.01 µM | TGI [18]: 4.53 µM | GI50 [19]: 4.88 µM | TGI [19]: 15.9 µM | GI50 [20]: 3.59 µM | TGI [20]: 9.38 µM | GI50 [21]: 3.75 µM | TGI [21]: 15.4 µM | GI50 [22]: 2.57 µM | TGI [22]: 4.9 µM | GI50 [23]: 7.59 µM | TGI [23]: 19.7 µM | GI50 [24]: 14.4 µM | TGI [24]: 27.6 µM | GI50 [25]: 14.3 µM | TGI [25]: 27.5 µM | GI50 [26]: 2.6 µM | TGI [26]: 5.8 µM | GI50 [27]: 2.29 µM | TGI [27]: 4.86 µM | GI50 [28]: 2.68 µM | TGI [28]: 6.58 µM | GI50 [29]: 2.6 µM | TGI [29]: 4.37 µM | GI50 [30]: 2.63 µM | TGI [30]: 9.07 µM | GI50 [31]: 18.5 µM | TGI [31]: 47.4 µM | GI50 [32]: 3.33 µM | TGI [32]: 12.1 µM | GI50 [33]: 3.43 µM | TGI [33]: 6.55 µM | GI50 [34]: 2.04 µM | TGI [34]: 4.28 µM | GI50 [35]: 1.91 µM | TGI [35]: 3.64 µM | GI50 [36]: 4.45 µM | TGI [36]: 13.8 µM | GI50 [37]: 2.39 µM | TGI [37]: 4.87 µM | GI50 [38]: 3.36 µM | TGI [38]: 12.3 µM | GI50 [39]: 1.49 µM | TGI [39]: 3.35 µM | GI50 [40]: 4.23 µM | TGI [40]: 13.1 µM | GI50 [41]: 3.74 µM | TGI [41]: 10.6 µM | GI50 [42]: 3.22 µM | TGI [42]: 9.1 µM | GI50 [43]: 15.4 µM | TGI [43]: 28.9 µM | GI50 [44]: 1.73 µM | TGI [44]: 3.16 µM | GI50 [45]: 2.02 µM | TGI [45]: 3.77 µM | GI50 [46]: 1.62 µM | TGI [46]: 3.12 µM | GI50 [47]: 1.6 µM | TGI [47]: 3.01 µM | GI50 [48]: 1.98 µM | TGI [48]: 3.91 µM | GI50 [49]: 2.01 µM | TGI [49]: 4.04 µM | GI50 [50]: 5.86 µM | TGI [50]: 18.9 µM | GI50 [51]: 2.54 µM | TGI [51]: 4.16 µM | GI50 [52]: 4.2 µM | TGI [52]: 15.4 µM | GI50 [53]: 4.37 µM | TGI [53]: 12.1 µM | GI50 [54]: 1.65 µM | TGI [54]: 3.08 µM | GI50 [55]: 3.56 µM | TGI [55]: 14.9 µM
